Consider three compounds from patent US8222022B2, “Tri-functionalized cryptophane biosensors” (The Trustees of the University of Pennsylvania, priority 2008, dated 2012).

As a reminder, the pKa is the pH at which an ionisable group is half protonated. For orientation: Kd means the constant that tells how readily two partners part at equilibrium.

For data set [1] the following is noted: comparison value; cited from earlier work.
Data set [2] is described as follows: Xenon binding by fluorescence quenching. To be noted: 293 K, phosphate buffer. As for the experimental part:
Steady-state fluorescence spectra were acquired using a Varian Cary Eclipse fluorimeter equipped with a Peltier multicell holder for temperature control. Concentration measurements necessary for fluorescence work were obtained using an Agilent 8453 UV-Vis spectrophotometer. Xenon binding determination by fluorescence quenching was performed. The quantum yield of tri-acid cryptophane was measured relative to tryptophan.
The xenon affinity of tricarboxylate cryptophane was studied by fluorescence quenching (FIG. 2) and isothermal titration calorimetry (ITC) (FIG. 3). […] As in a previous fluorescence quenching study with TTPC, temperature-equilibrated solutions of xenon-saturated water were added sequentially by syringe to a septum-sealed fluorescence cuvette and fluorescence intensity measurements were taken. […]
A saturated xenon solution at 310 K ([Xe]=3.3 mM) was titrated into the septum-sealed cuvette by gas-tight syringe. […] In all cases, fluorescence spectra were collected after thermal equilibration at 293 K (FIG. 2)
The fluorescence maxima were fitted to a single-site binding model using the following relationship.
At xenon saturation, [Xe]=5.05 mM at 293 K and 1 atm, the cryptophane fluorescence was half quenched (Fo/F=2). No cryptophane impurities or concentration dependent phenomena were observed that might also contribute to partial fluorescence quenching. […]

A short description of data set [3]: Aqueous solubility (visual observation of precipitation, dissolution in aqueous base). To be noted: visual observation of precipitation during titration.
Text: Steric congestion near the carboxylic acid group decreases acidity by preventing efficient solvation of the carboxylate anion. […] Each acid group attached to TAAC can be approximated as being an acetic acid attached to a ˜1 nm diameter nonpolar sphere. Water molecules surrounding the nonpolar cryptophane surface must be ordered, a consequence of the hydrophobic effect. Carboxylate solvation must directly compete with this ordered solvation sphere necessary for the cryptophane core.
Data set [4] in a line: Xenon binding by isothermal titration calorimetry (ITC) in phosphate buffer. As for the experimental part: ITC samples were prepared and experiments were performed using a MicroCal VP-ITC titration microcalorimeter (Northampton, Mass.) at 293 K. Standard protocols and data analysis were used. Control enthalpograms are given in the appended figures.
In order to confirm the association constants obtained by fluorescence quenching, ITC experiments were performed.
(§1) Xenon binding was also determined by isothermal titration calorimetry (ITC), which directly measured the heat released during Xe association. ITC measurements were undertaken in 20 mM, pH 7.5 phosphate buffer at 293 K and 310 K as well as in human plasma at 310 K (FIG. 3).
The association constants obtained from fits of ITC data at 293 K (KA=1.73×10^4 M^−1, Table 5) and fluorescence quenching were in excellent agreement. […] This was likely a consequence of the 20 water molecules that make up the first solvation sphere of the Xe atom in aqueous solution.
Background: In ITC the heat of successive injections is recorded.

Data set [5] in a line: Xenon binding by ITC in human plasma. The conditions noted are these: Plasma 310 K. As for the experimental part: as §1
From Table 5 and the known thermodynamics of xenon partitioning into water, an upper limit of ΔH=−7.5 kcal/mol was calculated for the enthalpy of xenon binding to I. Thus, the measured ΔH of −6.04 kcal/mol, although larger than in buffer, appeared reasonable.

A further data set addresses human isozyme II (CAII) (Homo sapiens, UniProt P00918). Description: Binding to carbonic anhydrase II in solution (ITC). The conditions noted are these: read-out: KD against CAII. The source says: The ^129Xe isotope has a spin-½ nucleus, a >200 ppm chemical shift window in water, and a natural isotopic abundance of 26% (commercially available up to 86%), which makes it an appealing biomolecular probe for MRI. Moreover, ^129Xe can be laser polarized to enhance MRI signals ˜10,000-fold.

The mark [6] stands for this setting: 293 K, 20 mM pH 7.5 phosphate buffer.

A value given as a limit tells only on which side of the number the result lay.

For the compound `COc1ccccc1OCC(=O)O` [2-(2-methoxyphenoxy)acetic acid], the “pKa of analogous acid (comparison)” value in data set [1] was 3.23.

With `COc1cc2c3cc1OCCOc1cc4c(cc1OCC(=O)O)Cc1cc5c(OCC(=O)O)cc1Cc1cc(c(OCC(=O)O)cc1C4)OCCOc1cc(c(cc1OC)C3)Cc1cc(OC)c(cc1C2)OCCO5` [TAAC, Tri-Acetic Acid Cryptophane], in data set [2], the “association constant (Xe) by fluorescence quenching” value is recorded as 33,000±2000 M^−1. In data set [3], the “deprotonations required for aqueous solubility” value was “required all three acids to be deprotonated for aqueous solubility”. Also, the “additional stabilization of the Xe@TAAC complex relative to Xe@TTPC” value in data set [4] (293 K) is -0.37 kcal/mol. Also, in data set [4] (setting [6]), the “xenon association constant KA by ITC” value is recorded as 33,000±3000 M^−1, the “ΔG of xenon binding” value is -6.09 kcal/mol, the “ΔH of xenon binding” value was -4.3 ± 0.7 kcal/mol and the “ΔS of xenon binding” value was determined as 5.9 cal*mol^−1*K^−1. Also, the xenon association constant in data set [4] (293 K, by ITC and fluorescence quenching assay) is 33,000 M^−1. The xenon association constant in data set [4] (310 K, extrapolated from the 293 K value) was ~50,000 M^−1. Also, in data set [4] (ITC at 293 K (Table 2)), the KA turned out to be 3.33 ± 0.28 M^−1 × 10^4, the TΔS was found to be 1.72 kcal/mol, the ΔG is -6.06 kcal/mol and the ΔH was -4.34 ± 0.66 kcal/mol. In “Acid-base titration”, this compound registered a pKa of 4.1.

For the compound “tri-triazole propionate cryptophane [TTPC]”, in data set [2], the “association constant (Xe) by fluorescence quenching” value is reported as 17,000±1800 M^−1. Further, in data set [5], the KA stood at 2.19 ± 0.22 M^−1 × 10^4, the TΔS was 0.12 kcal/mol, the “TΔS (contribution of entropy)” value is given as 0.12 and the “measured ΔH of xenon binding” value is -6.04 kcal/mol. Further, in data set [5], the ΔG is -6.16 kcal/mol and the ΔH was -6.04 ± 0.33 kcal/mol. Moreover, in data set [4] (Buffer 293 K), the KA stood at 1.73 ± 0.17 M^−1 × 10^4, the TΔS was 2.55 kcal/mol, the ΔG is -5.69 kcal/mol and the ΔH is -3.14 ± 0.20 kcal/mol. In addition, in data set [4] (Buffer 310 K), the KA was 3.01 ± 0.26 M^−1 × 10^4, the TΔS stood at 2.80 kcal/mol, the ΔG was -6.36 kcal/mol and the ΔH is -3.56 ± 0.13 kcal/mol. Moreover, in data set [4] (ITC at 293 K (Table 2)), the KA came to 1.70 M^−1 × 10^4, the TΔS turned out to be 2.55 kcal/mol, the ΔG was -5.69 kcal/mol and the ΔH was -3.14 kcal/mol. Moreover, the “upper limit of ΔH for the enthalpy of xenon binding” value in data set [4] (calculated from Table 5 and known thermodynamics of xenon partitioning into water) is ≤ -7.5 kcal/mol. Also, in data set [4] (phosphate buffer, 293 and 310 K), the “ΔS of xenon binding” value turned out to be 9.0 cal/mol K. Further, the Kd at human isozyme II (CAII) turned out to be 60 ± 20 nM.
